Experiments:
language disorder = assay: Effect of EPA-E on a language-disordered patient with a history of cerebral infarction; assay type: in vivo, human
Method: A person with the history of cerebral infarction was treated. The patient experienced cerebral infarction in November, 2001, and started rehabilitation therapy of left hemiplegia from April, 2002. In June, 2002, the patient was hospitalized for 1 month because of recurrence of the cerebral infarction, and again started the rehabilitation therapy from August, 2002. The drugs that the patient had been taking before the EPA-E include: Gramalil (trade name; manufactured by Fujisawa Pharmaceutical Co., Ltd.; generic name, tiapride hydrochloride), Ketas (trade name; manufactured by Kyorin Pharmaceutical Co., Ltd.; generic name, ibudilast), Panaldine (trade name; manufactured by Daiichi Pharmaceutical Co., Ltd.; generic name, ticlopidine hydrochloride), Nivadil (trade name; manufactured by Fujisawa Pharmaceutical Co., Ltd.; generic name, nilvadipine), Altat (trade name; manufactured by Teikoku Hormone Mfg. Co., Ltd.; generic name, roxatidine acetate hydrochloride).
Before taking EPA-E, the patient could barely bring out a word. From September, 2002, the patient was administered with Epadel S600 (trade name; manufactured by Mochida Pharmaceutical Co., Ltd.; generic name, ethyl icosapentate) at a dose 600 mg and 3 times a day (namely, at a daily dose of 1800 mg).

[1] = system: cell derived from mouse connective tissue; conditions: cited from earlier work
rat = conditions: delayed discrimination test in rat; cited from earlier work

Compound	side effects (overall conclusion) (language disorder; human, in vivo)	therapeutic effect for language disorder (overall conclusion) (language disorder; summary of Example 1)	NGF production [1]	correct reaction rate (rat)	speech / conversation of the patient (language disorder; 1800 mg/day from September 2002, December 2002)	frequency of conversation, vocabulary, communication ability (language disorder; 1800 mg/day from September 2002, February 2003)	frequency of conversation and vocabulary (language disorder; 1800 mg/day from September 2002, January 2003)	speech / conversation of the patient (language disorder; 1800 mg/day from September 2002, November 2002)	adverse events (language disorder; 1800 mg/day, 6 months from the start of the administration)	speech / conversation of the patient (language disorder; person, Epadel S600 600 mg 3 times a day (1800 mg/day) from September 2002, late October 2002)
CC/C=C\C/C=C\C/C=C\C/C=C\C/C=C\CCCC(=O)O [EPA, all-cis-5,8,11,14,17-icosapentaenoic acid]	no side effects	significant therapeutic effects for language disorder	action of enhancing NGF production	increase of correct reaction rate						
CC/C=C\C/C=C\C/C=C\C/C=C\C/C=C\CCCC(=O)OCC [EPA-E, ethyl icosapentate]					able to carry on a complicated conversation comprising not only a single word but a plurality of words	further improvement was noted in the frequency of conversation, vocabulary, communication ability	the frequency of the conversation as well as vocabulary increased even further	responding “not hurting anywhere” when fallen from the bed, and waking up at night and responding “I am not sleepy”	no adverse event suggested to be caused by EPA-E was found	started to respond by saying “Good morning”, and also started brief conversation with the care giver during the meal

Source: patent publication US20070082949A1, “Agent for preventing and treating language disorders” (priority 2003, published 2007)
